Measurements published in PubChem BioAssay AID588385 (NMMLSC, 2011).
Activity calls are given as the source filed them.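 Rule for the calls: active = EC50 at most 10 µM,% response shifting 30 points or more across doses, valid curve fit; inactive = the rest.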

Each molecule was assayed against Cell division control protein 42 homolog (Homo sapiens) (UniProt P60953) (assay: wild-type Cdc42 fluorescent nucleotide binding blockers – biochemical, wildtype, bead multiplex, flow cytometry, round 1, SAR follow-up (AID 588385)). Settings: GST-Cdc42 wt beads, Bodipy-GTP binding.
Sequence of Cell division control protein 42 homolog (Homo sapiens) (P60953 whole entry, looked up): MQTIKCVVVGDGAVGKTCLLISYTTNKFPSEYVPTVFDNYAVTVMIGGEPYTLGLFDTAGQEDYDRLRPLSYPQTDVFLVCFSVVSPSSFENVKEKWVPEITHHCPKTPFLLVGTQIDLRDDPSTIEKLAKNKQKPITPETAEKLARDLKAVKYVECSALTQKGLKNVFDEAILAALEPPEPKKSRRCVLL

Row | EC50 [nM] | Compound
1 | 82 | COc1cccc(C(=O)NC(=S)Nc2sc3c(c2C(=O)O)CC(C)(C)OC3)c1
2 | 452 | CC1(C)Cc2c(sc(NC(=S)NC(=O)c3ccc(Br)cc3)c2C(=O)O)CO1
3 | 91 | CC1(C)Cc2c(sc(NC(=S)NC(=O)c3ccccc3Br)c2C(=O)O)CO1
4 | 501 | COc1ccc(C(=O)NC(=S)Nc2sc3c(c2C(=O)O)CC(C)(C)OC3)cc1
5 | 80 | CC1(C)Cc2c(sc(NC(=S)NC(=O)c3ccccc3F)c2C(=O)O)CO1
6 | 40 | O=C(NC(=S)Nc1sc2c(c1C(=O)O)CCOC2)c1ccccc1
7 | 168 | CC1(C)CCc2sc(NC(=S)NC(=O)c3ccccc3)c(C(=O)O)c2C1
8 | 319 | CC1(C)Cc2c(sc(NC(=S)NC(=O)c3cccc(F)c3)c2C(=O)O)CO1
9 | 405 | CC1Cc2c(sc(NC(=S)NC(=O)c3ccccc3)c2C(=O)O)CO1 (stereo unspecified)

Same assay, conditions: GST-Cdc42 wt beads, Bodipy-GTP binding, at 100 µM (top of the series)

Row | % response (lower = inhibition) | Compound
10 | inactive | CC1(C)Cc2c(sc(NC(=S)Nc3ccccc3)c2C(=O)O)CO1
11 | inactive | CCOC(=O)c1c(NC(=S)NC(=O)c2ccccc2)sc2ccccc12
12 | inactive | CC1(C)Cc2c(sc(NC(=S)NC(=O)c3cccc(Br)c3)c2C(=O)O)CO1
13 | inactive | Cc1ccc(Nc2nc3sc4c(c3c(=O)o2)CCN(C)C4)cc1
14 | inactive | CCOC(=O)c1c(NC(=O)NC(C)(C)C)sc2c1CCN(C)C2
15 | inactive | CC(C)(C)OC(=O)c1c(NC(=S)NC(=O)c2ccccc2)sc2c1CCOC2
16 | inactive | CCOC(=O)c1c(NC(=O)Nc2ccc(F)cc2)sc2c1CCN(C)C2
17 | inactive | CC1(C)Cc2c(sc(NC(=O)NC(=O)c3ccccc3)c2C(=O)O)CO1
18 | inactive | CCOC(=O)c1c(NC(=O)Nc2ccc(C)cc2)sc2c1CCN(C)C2
19 | inactive | CCOC(=O)c1c(NC(=S)Nc2ccccc2)sc2c1CC(C)(C)OC2
20 | inactive | CCOC(=O)c1c(N)sc2ccccc12
21 | inactive | CN1CCc2c(sc3nc(Nc4ccc(F)cc4)oc(=O)c23)C1
22 | inactive | CC1(C)Cc2c(sc(NC(=O)Cc3ccccc3)c2C(=O)O)CO1
23 | inactive | Cc1ccc(NC(=O)Nc2sc3c(c2C(=O)O)CCN(C)C3)cc1
24 | inactive | COC(=O)c1c(N)sc2c1CC(C)(C)OC2
25 | inactive | CN1CCc2c(sc(NC(=O)Nc3ccc(F)cc3)c2C(=O)O)C1
26 | inactive | COC(=O)c1c(NC(=S)NC(=O)c2ccccc2)sc2c1CC(C)(C)OC2
